Test results taken from ChEMBL document CHEMBL1140457, “(1R,2S)-4-(2-cyano-cyclohexyl-oxy)-2-trifluoromethyl-benzonitrile, a potent androgen receptor antagonist for stimulating hair growth and reducing sebum production” (Bioorg Med Chem Lett, 2007).
The source made the active and inactive calls. No cut-off for these calls is given here.

What was measured:
Androgen receptor [1] = target: T1, Androgen receptor (Homo sapiens, UniProt P10275); assay: Displacement of [3H]DHT from androgen receptor expressed in Sf9 cells
T1 sequence (P10275 whole entry): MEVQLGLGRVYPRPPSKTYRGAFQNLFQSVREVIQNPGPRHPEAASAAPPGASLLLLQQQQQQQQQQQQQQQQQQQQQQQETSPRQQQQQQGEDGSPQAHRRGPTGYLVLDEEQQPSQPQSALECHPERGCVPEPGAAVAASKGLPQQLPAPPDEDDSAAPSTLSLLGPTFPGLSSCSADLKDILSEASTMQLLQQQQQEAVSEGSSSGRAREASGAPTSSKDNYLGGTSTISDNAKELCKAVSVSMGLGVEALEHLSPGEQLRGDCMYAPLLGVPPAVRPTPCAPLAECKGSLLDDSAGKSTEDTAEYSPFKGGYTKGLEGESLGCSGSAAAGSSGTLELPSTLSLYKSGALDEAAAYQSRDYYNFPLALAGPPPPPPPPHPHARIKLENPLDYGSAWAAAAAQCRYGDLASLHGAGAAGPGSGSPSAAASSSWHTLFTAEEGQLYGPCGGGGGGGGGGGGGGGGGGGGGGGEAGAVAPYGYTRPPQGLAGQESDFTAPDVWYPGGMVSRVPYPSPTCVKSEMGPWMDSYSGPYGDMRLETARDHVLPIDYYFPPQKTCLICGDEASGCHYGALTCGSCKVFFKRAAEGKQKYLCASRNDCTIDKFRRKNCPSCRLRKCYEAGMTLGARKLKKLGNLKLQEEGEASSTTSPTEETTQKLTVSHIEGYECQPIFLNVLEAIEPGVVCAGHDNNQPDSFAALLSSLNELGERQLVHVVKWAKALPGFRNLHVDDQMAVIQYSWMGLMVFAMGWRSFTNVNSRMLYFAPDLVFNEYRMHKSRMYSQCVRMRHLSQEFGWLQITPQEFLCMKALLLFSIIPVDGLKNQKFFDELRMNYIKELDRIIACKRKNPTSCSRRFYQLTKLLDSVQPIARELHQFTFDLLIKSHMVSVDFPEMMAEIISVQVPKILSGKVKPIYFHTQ

Androgen receptor [2] = target: T1, Androgen receptor; assay: Antagonist activity at androgen receptor expressed in MDA-MB-453 cells assessed as inhibition of dihydrotestosterone-induced response in reporter gene assay; format: functional, cell-based
Syrian golden hamster [3] = assay: Reduction of sebum production in topically dosed Syrian hamster ear model administered at 0.5% concentration twice daily for 2 weeks; format: functional, Mesocricetus auratus; set-up: scale not given: the % may be the effect or the level left
Mus musculus = assay: Stimulation of hair growth in topically dosed C3H/HeN mouse model administered twice daily for 4 weeks; format: functional, organism-based
Syrian golden hamster [4] = assay: Reduction of sebum production in topically dosed Syrian hamster ear model administered twice daily for 2 weeks; format: functional, Mesocricetus auratus
Syrian golden hamster [5] = assay: Reduction of sebaceous gland size in topically dosed Syrian hamster ear model administered twice daily for 2 weeks; format: functional, organism-based; conditions: Mesocricetus auratus
[6] = Plasma clearance in Sprague-Dawley rat at 1 mg/kg, iv; format: ADME, organism-based; set-up: dose 1 mg/kg, route intravenous
[7] = Volume of distribution at steady state in Sprague-Dawley rat at 1 mg/kg, iv; format: ADME, organism-based; set-up: dose 1 mg/kg, route intravenous; conditions: in vivo, read-out: Vdss
[8] = Half life in Sprague-Dawley rat at 1 mg/kg, iv; format: ADME, organism-based; set-up: dose 1 mg/kg, route intravenous; conditions: in vivo
[9] = Metabolic stability in Sprague-Dawley rat hepatocytes assessed as hepatic extraction ratio at 1 uM; format: ADME, cell-based, Hepatocyte; conditions: read-out: Stability
[10] = Metabolic stability in Beagle dog hepatocytes assessed as hepatic extraction ratio at 1 uM; format: ADME, cell-based, Canis lupus familiaris, Hepatocyte; conditions: read-out: Stability
[11] = Metabolic stability in human hepatocytes assessed as hepatic extraction ratio at 1 uM; format: ADME, cell-based, Hepatocyte; conditions: read-out: Stability

Compound: N#Cc1ccc(O[C@H]2CCCC[C@@H]2C#N)cc1C(F)(F)F
- IC50 (Androgen receptor [1]): 0.043 µM
- IC50 (Androgen receptor [2]): 0.196 µM

Compound: CC1(C)C(=O)N(c2ccc(C#N)c(C(F)(F)F)c2)C(=O)N1CCCCO [RU-58841]
- Activity (Syrian golden hamster [3]): 91%

Compound: N#Cc1ccc(OC2CCCCC2C#N)cc1C(F)(F)F (racemic)
- IC50 (Androgen receptor [1]): 0.058 µM
- IC50 (Androgen receptor [2]): 0.013 µM

Compound: N#Cc1ccc(O[C@@H]2CCCC[C@H]2C#N)cc1C(F)(F)F
- Activity (Mus musculus): Dose-dependent effect
- ED50 (Syrian golden hamster [4]): 0.1%
- Activity (Syrian golden hamster [5]): Active
- clearance [6]: 71 mL/min/kg
- Vd [7]: 6.5 L/kg
- half-life [8]: 1.6 h
- hepatic extraction ratio at 1 µM [9]: 0.88
- hepatic extraction ratio at 1 µM [10]: 0.92
- hepatic extraction ratio at 1 µM [11]: 0.57
- IC50 (Androgen receptor [1]): 0.06 µM
- IC50 (Androgen receptor [2]): 0.012 µM
